{"source": "patent US10081561B2", "about": "“Reduction of hydrogen sulfide and/or malodor gassing from water via the addition of peroxyacetic acid/hydrogen peroxide product” (priority 2013, dated 2018)", "system": "aerobe population and SRP population", "test": "PAA demand study, assumed microbial kill efficiency (FIG. 2)", "format": "cell-based", "conditions": "assumed for FIG. 2", "text": "Referring now to FIG. 2 there is shown a graph of one such example. If we assume that in a given system the aerobe population is 1,000,000 per mL and the SRP population is 100,000 per mL and we perform a PAA demand study to understand the microbial kill efficiency we can then determine how much PAA to add to minimize the SRP population without killing so many aerobes that it is detrimental to the waste water plant. This graph assumes that reduction after treatment may be something like: 50% reduction with a 20 ppm PAA treatment, 90% reduction with a 40 ppm treatment, and 99% reduction with a 60 ppm treatment. The goal of treatment would be to suppress the SPR population as much as possible while still allowing a sufficient number of aerobes to survive and move into the waste process."}
{"smiles": "CC(=O)OO", "note": "[PAA, peroxyacetic acid]", "values": [{"measurement": "reduction after treatment", "setting": "20 ppm PAA treatment", "value": "~50", "unit": "%"}, {"measurement": "reduction after treatment", "setting": "40 ppm treatment", "value": "~90", "unit": "%"}, {"measurement": "reduction after treatment", "setting": "60 ppm treatment", "value": "~99", "unit": "%"}]}
